In ChEMBL document CHEMBL4138202, “Design, synthesis, biological evaluation and molecular modeling of novel 2-amino-4-(1-phenylethoxy) pyridine derivatives as potential ROS1 inhibitors” (Eur J Med Chem, 2018):

How the values were obtained:
[1] = target: Proto-oncogene tyrosine-protein kinase ROS (Homo sapiens, UniProt P08922); test: Inhibition of recombinant human GST-tagged ROS1 expressed in baculovirus expression system by Z'LYTE assay
NCI-H3122 = test: Antiproliferative activity against human NCI-H3122 cells after 48 hrs by MTT assay; conditions: NCI-H3122, 48 h
HCC78 = test: Antiproliferative activity against human HCC78 cells after 48 hrs by MTT assay; conditions: HCC78, 48 h
[2] = target: ALK tyrosine kinase receptor (Homo sapiens, UniProt Q9UM73); test: Inhibition of recombinant human GST-tagged ALK expressed in baculovirus expression system by Z'LYTE assay
ALK tyrosine kinase receptor, sequence (Q9UM73 whole entry): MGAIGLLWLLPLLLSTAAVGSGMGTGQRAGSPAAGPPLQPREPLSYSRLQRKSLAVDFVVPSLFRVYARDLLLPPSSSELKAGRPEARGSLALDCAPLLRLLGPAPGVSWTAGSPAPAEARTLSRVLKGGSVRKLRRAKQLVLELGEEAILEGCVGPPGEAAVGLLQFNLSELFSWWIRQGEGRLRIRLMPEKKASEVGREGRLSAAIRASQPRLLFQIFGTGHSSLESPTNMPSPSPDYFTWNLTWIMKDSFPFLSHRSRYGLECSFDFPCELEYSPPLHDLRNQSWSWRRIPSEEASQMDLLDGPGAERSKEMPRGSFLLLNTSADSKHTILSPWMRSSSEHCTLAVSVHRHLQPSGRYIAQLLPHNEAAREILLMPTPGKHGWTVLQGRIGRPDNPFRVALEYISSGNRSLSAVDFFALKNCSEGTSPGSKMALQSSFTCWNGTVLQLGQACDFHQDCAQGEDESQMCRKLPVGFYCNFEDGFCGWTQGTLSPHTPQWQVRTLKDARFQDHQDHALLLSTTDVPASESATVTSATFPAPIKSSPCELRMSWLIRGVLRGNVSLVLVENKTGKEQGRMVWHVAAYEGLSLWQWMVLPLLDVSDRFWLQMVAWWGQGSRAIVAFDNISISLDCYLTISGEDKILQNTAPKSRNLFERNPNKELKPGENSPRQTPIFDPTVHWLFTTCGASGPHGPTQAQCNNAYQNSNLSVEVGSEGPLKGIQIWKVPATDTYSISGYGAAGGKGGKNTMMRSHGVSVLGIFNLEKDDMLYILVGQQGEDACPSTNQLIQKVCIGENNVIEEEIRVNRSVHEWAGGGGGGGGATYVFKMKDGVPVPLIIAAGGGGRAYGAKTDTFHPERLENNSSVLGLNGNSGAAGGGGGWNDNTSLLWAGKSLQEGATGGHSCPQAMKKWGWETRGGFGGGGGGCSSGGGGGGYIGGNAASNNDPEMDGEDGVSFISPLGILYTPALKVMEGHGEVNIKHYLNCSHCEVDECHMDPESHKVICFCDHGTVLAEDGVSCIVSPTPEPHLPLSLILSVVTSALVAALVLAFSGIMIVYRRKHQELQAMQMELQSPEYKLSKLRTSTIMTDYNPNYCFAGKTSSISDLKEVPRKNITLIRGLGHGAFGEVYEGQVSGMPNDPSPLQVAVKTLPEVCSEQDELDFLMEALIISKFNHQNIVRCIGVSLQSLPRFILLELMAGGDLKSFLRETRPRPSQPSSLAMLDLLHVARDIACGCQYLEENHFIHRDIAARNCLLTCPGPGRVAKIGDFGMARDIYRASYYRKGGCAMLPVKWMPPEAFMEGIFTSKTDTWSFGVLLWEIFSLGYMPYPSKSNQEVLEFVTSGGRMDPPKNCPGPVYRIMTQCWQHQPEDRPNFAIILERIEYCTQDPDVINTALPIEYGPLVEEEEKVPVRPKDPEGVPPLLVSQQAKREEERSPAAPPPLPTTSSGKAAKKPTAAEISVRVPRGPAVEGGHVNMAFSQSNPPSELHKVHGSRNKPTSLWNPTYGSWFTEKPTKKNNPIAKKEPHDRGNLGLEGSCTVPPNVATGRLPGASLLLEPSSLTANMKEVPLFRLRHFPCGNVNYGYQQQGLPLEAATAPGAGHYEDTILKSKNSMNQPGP

[3] = target: Tyrosine-protein kinase ABL1 (Homo sapiens) (UniProt P00519); test: Inhibition of recombinant human His-tagged ABL1 expressed in baculovirus expression system at 1 uM by Z'LYTE assay relative to control
[4] = target: Serine/threonine-protein kinase B-raf (Homo sapiens) (UniProt P15056); test: Inhibition of recombinant human full length GST-tagged BRAF expressed in baculovirus expression system at 1 uM by Z'LYTE assay relative to control
[5] = target: CDK2/Cyclin A2 (Homo sapiens) (UniProt P24941+P20248); test: Inhibition of recombinant human full length His-tagged CDK2/cyclin A expressed in baculovirus expression system at 1 uM by Z'LYTE assay relative to control
[6] = target: Epidermal growth factor receptor (Homo sapiens) (UniProt P00533); test: Inhibition of recombinant human GST-tagged EGFR expressed in baculovirus expression system at 1 uM by Z'LYTE assay relative to control
[7] = target: Fibroblast growth factor receptor 1 (Homo sapiens) (UniProt P11362); test: Inhibition of recombinant human His-tagged FGFR1 expressed in baculovirus expression system at 1 uM by Z'LYTE assay relative to control
[8] = target: Insulin-like growth factor 1 receptor (Homo sapiens) (UniProt P08069); test: Inhibition of recombinant human His-tagged IGF1R expressed in baculovirus expression system at 1 uM by Z'LYTE assay relative to control
[9] = target: Tyrosine-protein kinase JAK2 (Homo sapiens) (UniProt O60674); test: Inhibition of recombinant human GST-tagged JAK2 expressed in baculovirus expression system at 1 uM by Z'LYTE assay relative to control
Tyrosine-protein kinase JAK2 (Homo sapiens), sequence (O60674 whole entry): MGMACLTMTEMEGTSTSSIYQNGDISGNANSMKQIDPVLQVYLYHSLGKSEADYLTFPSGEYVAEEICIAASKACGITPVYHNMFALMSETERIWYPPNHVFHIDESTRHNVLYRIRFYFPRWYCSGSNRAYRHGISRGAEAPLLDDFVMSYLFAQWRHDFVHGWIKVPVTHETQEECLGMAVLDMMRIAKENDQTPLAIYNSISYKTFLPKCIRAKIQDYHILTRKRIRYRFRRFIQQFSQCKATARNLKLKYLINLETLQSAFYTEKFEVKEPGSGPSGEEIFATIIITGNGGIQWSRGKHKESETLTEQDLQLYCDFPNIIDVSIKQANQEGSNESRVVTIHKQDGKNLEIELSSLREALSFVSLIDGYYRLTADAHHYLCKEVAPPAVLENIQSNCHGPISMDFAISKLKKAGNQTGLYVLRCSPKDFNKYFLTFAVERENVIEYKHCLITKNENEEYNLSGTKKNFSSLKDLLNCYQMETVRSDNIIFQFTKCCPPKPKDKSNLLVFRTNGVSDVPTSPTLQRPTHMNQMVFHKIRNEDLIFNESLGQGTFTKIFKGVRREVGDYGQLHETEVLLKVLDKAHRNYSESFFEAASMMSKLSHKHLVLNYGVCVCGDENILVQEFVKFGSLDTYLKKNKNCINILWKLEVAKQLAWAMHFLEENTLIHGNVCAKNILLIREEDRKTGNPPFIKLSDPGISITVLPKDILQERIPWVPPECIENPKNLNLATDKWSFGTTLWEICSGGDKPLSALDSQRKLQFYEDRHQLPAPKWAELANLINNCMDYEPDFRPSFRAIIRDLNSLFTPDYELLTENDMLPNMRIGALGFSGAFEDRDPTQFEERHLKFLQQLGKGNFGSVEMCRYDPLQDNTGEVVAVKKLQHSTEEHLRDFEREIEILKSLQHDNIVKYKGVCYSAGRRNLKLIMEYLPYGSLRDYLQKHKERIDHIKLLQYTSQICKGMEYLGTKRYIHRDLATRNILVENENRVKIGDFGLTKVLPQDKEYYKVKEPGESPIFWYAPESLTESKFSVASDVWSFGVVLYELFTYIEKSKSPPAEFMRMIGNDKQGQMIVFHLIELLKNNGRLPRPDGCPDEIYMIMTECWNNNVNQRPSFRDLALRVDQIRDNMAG

[10] = target: Mast/stem cell growth factor receptor Kit (Homo sapiens) (UniProt P10721); test: Inhibition of KIT (unknown origin) at 1 uM by Z'LYTE assay relative to control
[11] = target: Leukocyte tyrosine kinase receptor (Homo sapiens) (UniProt P29376); test: Inhibition of recombinant human GST-tagged LTK expressed in baculovirus expression system at 1 uM by Z'LYTE assay relative to control
[12] = target: Mitogen-activated protein kinase 3 (Homo sapiens) (UniProt P27361); test: Inhibition of recombinant human GST-tagged full length MAPK3 expressed in Escherichia coli at 1 uM by Z'LYTE assay relative to control
[13] = target: Hepatocyte growth factor receptor (Homo sapiens) (UniProt P08581); test: Inhibition of recombinant human His-tagged MET expressed in mammalian expression system at 1 uM by Z'LYTE assay relative to control
[14] = target: Platelet-derived growth factor receptor alpha (Homo sapiens) (UniProt P16234); test: Inhibition of recombinant human GST-tagged PDGFRalpha expressed in baculovirus expression system at 1 uM by Z'LYTE assay relative to control

Proto-oncogene tyrosine-protein kinase ROS, sequence (P08922 whole entry): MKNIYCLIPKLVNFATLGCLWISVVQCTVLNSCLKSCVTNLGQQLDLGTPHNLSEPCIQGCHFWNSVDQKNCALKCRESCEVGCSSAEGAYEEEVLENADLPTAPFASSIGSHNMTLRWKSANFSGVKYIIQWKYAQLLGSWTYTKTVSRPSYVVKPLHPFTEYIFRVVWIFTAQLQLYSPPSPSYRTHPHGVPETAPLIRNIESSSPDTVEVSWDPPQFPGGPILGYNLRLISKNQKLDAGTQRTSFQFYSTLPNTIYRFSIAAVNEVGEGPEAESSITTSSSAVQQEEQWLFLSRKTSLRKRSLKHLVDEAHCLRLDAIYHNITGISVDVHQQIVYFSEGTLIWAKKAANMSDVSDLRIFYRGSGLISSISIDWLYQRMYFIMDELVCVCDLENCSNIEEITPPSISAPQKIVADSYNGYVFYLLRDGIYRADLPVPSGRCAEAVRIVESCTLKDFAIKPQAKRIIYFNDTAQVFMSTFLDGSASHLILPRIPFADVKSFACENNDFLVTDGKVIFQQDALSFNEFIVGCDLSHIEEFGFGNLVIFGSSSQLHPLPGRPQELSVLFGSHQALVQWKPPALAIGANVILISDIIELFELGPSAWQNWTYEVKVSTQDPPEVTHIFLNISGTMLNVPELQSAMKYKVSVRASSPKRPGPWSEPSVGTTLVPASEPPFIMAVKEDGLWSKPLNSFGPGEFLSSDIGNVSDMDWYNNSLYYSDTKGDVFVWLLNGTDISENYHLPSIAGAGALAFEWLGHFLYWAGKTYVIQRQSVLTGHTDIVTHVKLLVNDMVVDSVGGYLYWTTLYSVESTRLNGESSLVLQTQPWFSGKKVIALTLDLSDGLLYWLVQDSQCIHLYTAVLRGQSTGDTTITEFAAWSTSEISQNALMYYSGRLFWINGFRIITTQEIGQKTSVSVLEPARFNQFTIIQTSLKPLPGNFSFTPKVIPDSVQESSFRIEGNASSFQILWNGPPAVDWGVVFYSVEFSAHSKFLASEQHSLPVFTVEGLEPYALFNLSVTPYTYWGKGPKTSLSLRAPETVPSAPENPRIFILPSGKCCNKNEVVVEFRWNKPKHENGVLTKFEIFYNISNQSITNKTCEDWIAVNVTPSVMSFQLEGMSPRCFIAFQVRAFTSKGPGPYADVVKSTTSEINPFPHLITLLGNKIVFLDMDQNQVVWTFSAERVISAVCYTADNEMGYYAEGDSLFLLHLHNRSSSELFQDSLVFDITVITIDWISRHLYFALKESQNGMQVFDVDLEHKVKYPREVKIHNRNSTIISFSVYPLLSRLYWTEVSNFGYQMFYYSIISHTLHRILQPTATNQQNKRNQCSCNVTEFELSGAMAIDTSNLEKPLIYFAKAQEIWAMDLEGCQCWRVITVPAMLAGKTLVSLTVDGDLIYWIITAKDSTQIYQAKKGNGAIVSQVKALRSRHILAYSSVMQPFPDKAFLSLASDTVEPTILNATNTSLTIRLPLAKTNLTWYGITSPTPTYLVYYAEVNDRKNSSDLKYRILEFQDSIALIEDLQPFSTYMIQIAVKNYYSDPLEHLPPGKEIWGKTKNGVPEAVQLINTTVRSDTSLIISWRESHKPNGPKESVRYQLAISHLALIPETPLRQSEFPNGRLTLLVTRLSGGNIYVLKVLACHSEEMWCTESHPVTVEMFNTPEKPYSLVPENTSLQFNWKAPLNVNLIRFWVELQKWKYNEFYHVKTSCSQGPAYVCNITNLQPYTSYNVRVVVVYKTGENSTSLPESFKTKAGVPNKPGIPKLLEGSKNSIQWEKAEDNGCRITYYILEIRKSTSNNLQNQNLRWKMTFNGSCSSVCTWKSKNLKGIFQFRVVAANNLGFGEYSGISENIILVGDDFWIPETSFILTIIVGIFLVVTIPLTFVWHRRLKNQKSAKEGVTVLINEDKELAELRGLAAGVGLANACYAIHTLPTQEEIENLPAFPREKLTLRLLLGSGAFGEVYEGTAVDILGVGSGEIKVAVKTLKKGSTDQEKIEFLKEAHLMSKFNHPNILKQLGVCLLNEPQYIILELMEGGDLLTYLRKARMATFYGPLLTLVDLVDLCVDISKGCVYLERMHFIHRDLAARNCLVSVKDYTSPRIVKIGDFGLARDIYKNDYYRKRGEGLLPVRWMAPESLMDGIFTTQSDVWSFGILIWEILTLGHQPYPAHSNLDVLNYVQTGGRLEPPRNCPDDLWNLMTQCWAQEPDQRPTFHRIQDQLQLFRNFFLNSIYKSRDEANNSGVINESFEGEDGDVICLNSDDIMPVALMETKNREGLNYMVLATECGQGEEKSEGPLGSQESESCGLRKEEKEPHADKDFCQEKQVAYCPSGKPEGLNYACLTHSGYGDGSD

IC50 [1] [µM]	IC50 (NCI-H3122) [µM]	IC50 (HCC78) [µM]	Structure (SMILES)	other results
9.1	21.7	23.5	CC(Oc1ccnc(NN2CCN(C)CC2)c1)c1cccc(C(=O)NCc2ccc(Cl)c(C(F)(F)F)c2)c1 (stereo unspecified)	
8.7	38.4	57.4	Cc1ccc(CNC(=O)c2cccc(C(C)Oc3cccnc3Nc3cnn(CC#N)c3)c2)cc1 (stereo unspecified)	IC50 [2]: > 10 µM
> 10	35.7	7.8	CC(Oc1cccnc1Nc1cnn(C)c1)c1cccc(C(=O)NCc2ccc(F)c(Cl)c2)c1 (stereo unspecified)	
9.6	8.2	34.7	Cc1cnc(Nc2ncccc2OC(C)c2cccc(C(=O)NCc3ccc(F)c(Cl)c3)c2)s1 (stereo unspecified)	
> 10	43.8	68.5	CC(Oc1cccnc1Nc1cnn(C)c1)c1cccc(C(=O)NCc2ccc(F)cc2)c1 (stereo unspecified)	
> 10	8.3	73.9	CC(Oc1cccnc1Nc1cnn(C)c1)c1cccc(C(=O)NCc2ccc(OC(F)(F)F)cc2)c1 (stereo unspecified)	
6.3	50.7	48.6	CC(Oc1cccnc1Nc1cnn(C)c1)c1cccc(C(=O)NCc2ccc(Cl)c(C(F)(F)F)c2)c1 (stereo unspecified)	
8.7	> 100	63.1	CC(Oc1cccnc1Nc1cnn(C)c1)c1cccc(C(=O)NCc2ccccc2S(=O)(=O)C(C)C)c1 (stereo unspecified)	IC50 [2]: > 10 µM
> 10	49.4	78.6	COc1cccc(CNC(=O)c2cccc(C(C)Oc3cccnc3Nc3cnn(C)c3)c2)c1 (stereo unspecified)	
9.4	9.1	20.5	Cc1ccc(CNC(=O)c2cccc(C(C)Oc3cccnc3Nc3cnn(CC(C)(C)O)c3)c2)cc1 (stereo unspecified)	IC50 [2]: > 10 µM
2.3	8	7.3	CC(Oc1ccnc(Nc2cnn(C3CCN(C)CC3)c2)c1)c1cccc(C(=O)NCc2ccc(Cl)c(C(F)(F)F)c2)c1 (stereo unspecified)	
8.4	38.4	> 100	CC(Oc1ccnc(Nc2cnn(CC(C)(C)O)c2)c1)c1cccc(C(=O)NCc2ccc(Cl)c(C(F)(F)F)c2)c1 (stereo unspecified)	

The remaining lines, values behind:

Structure (SMILES)	IC50 [1] [µM]	IC50 (NCI-H3122) [µM]	IC50 (HCC78) [µM]	other results
Cc1ccc(CNC(=O)c2cccc(C(C)Oc3ccnc(Nc4cnn(C5CCN(C)CC5)c4)c3)c2)cc1 (stereo unspecified)	0.44	8.9	8.1	IC50 [2]: 3.1 µM; inhibition [3]: 9%; inhibition [4]: 15%; inhibition [5]: 1%; inhibition [6]: 1%; inhibition [7]: 11%; inhibition [8]: 7%; inhibition [9]: 12%; inhibition [10]: 2%; inhibition [11]: 9%; inhibition [12]: 8%; inhibition [13]: 3%; inhibition [14]: 6%
Cc1ccc(CNC(=O)c2cccc(C(C)Oc3ccnc(Nc4cnn(C)c4)c3)c2)cc1 (stereo unspecified)	1.8	7.7	8.9	
COc1ccc(CNC(=O)c2cccc(C(C)Oc3ccnc(Nc4ncccn4)c3)c2)cc1OC (stereo unspecified)	0.44	> 100	> 100	
COc1ccc(CNC(=O)c2cccc(C(C)Oc3ccnc(Nc4cnn(C5CCNCC5)c4)c3)c2)cc1OC (stereo unspecified)	0.37	47.2	65.3	IC50 [2]: 4.5 µM; inhibition [3]: 11%; inhibition [4]: 13%; inhibition [5]: 2%; inhibition [6]: 0%; inhibition [7]: 16%; inhibition [8]: 9%; inhibition [9]: 10%; inhibition [10]: 3%; inhibition [11]: 15%; inhibition [12]: 7%; inhibition [13]: 5%; inhibition [14]: 1%
CC(Oc1ccnc(Nc2cnn(C)c2)c1)c1cccc(C(=O)NCc2cc(C(F)(F)F)cc(C(F)(F)F)c2)c1 (stereo unspecified)	7.4	24.7	9.3	IC50 [2]: > 10 µM
CC(Oc1ccnc(Nc2cnn(C)c2)c1)c1cccc(C(=O)NCc2ccc(C#N)cc2)c1 (stereo unspecified)	1.5	35.1	8.7	
Cc1ccc(CNC(=O)c2cccc(C(C)Oc3ccnc(NN4CCN(C)CC4)c3)c2)cc1 (stereo unspecified)	> 10	8.1	26.2	
COc1cc(CNC(=O)c2cccc(C(C)Oc3ccnc(Nc4cnn(C)c4)c3)c2)cc(OC)c1OC (stereo unspecified)	0.41	29	73.9	
Cc1ccc(CNC(=O)c2cccc(C(C)Oc3cccnc3Nc3ncc(C)s3)c2)cc1 (stereo unspecified)	9.4	8.5	14.8	IC50 [2]: > 10 µM
Cc1ccc(CNC(=O)c2cccc(C(C)Oc3ccnc(Nc4cnn(CC(C)(C)O)c4)c3)c2)cc1 (stereo unspecified)	2.4	> 100	49.7	IC50 [2]: > 10 µM
COc1cc(Nc2cc(OC(C)c3cccc(C(=O)NCc4ccc(C)cc4)c3)ccn2)cc(OC)c1OC (stereo unspecified)	2.4	7.8	15.7	
Cc1ccc(CNC(=O)c2cccc(C(C)Oc3cccnc3Nc3nccs3)c2)cc1 (stereo unspecified)	> 10	15.3	27.1	
Cc1ccc(CNC(=O)c2cccc(C(C)Oc3ccnc(Nc4nc5ccccc5[nH]4)c3)c2)cc1 (stereo unspecified)	> 10	9.4	> 100	IC50 [2]: > 10 µM
Cc1ccc(CNC(=O)c2cccc(C(C)Oc3cccnc3Nc3ncccn3)c2)cc1 (stereo unspecified)	6.2	> 100	> 100	IC50 [2]: > 10 µM
C[C@@H](Oc1cc(-c2cnn(C3CCNCC3)c2)cnc1N)c1c(Cl)ccc(F)c1Cl [CRIZOTINIB]		0.8	2	
COc1cccc(CNC(=O)c2cccc(C(C)Oc3ccnc(Nc4cnn(C)c4)c3)c2)c1 (stereo unspecified)	1.8	> 100	64.4	
Cc1ccc(CNC(=O)c2cccc(C(C)Oc3ccnc(NN4CCOCC4)c3)c2)cc1 (stereo unspecified)	> 10	> 100	68.3	
CC(Oc1ccnc(Nc2cnn(C)c2)c1)c1cccc(C(=O)NCc2cc(F)cc(F)c2)c1 (stereo unspecified)	2.4	7.6	13.2	
Cc1ccc(CNC(=O)c2cccc(C(C)Oc3ccnc(Nc4cn(C)nc4C)c3)c2)cc1 (stereo unspecified)	1.4	13.4	17.5	
COc1ccc(CNC(=O)c2cccc(C(C)Oc3ccnc(Nc4cnn(C5CCN(C)CC5)c4)c3)c2)cc1OC (stereo unspecified)	0.57	14.8	9	
Cc1ccc(CNC(=O)c2cccc(C(C)Oc3cccnc3Nc3nncs3)c2)cc1 (stereo unspecified)	> 10	20.8	17.6	
Cc1ccc(CNC(=O)c2cccc(C(C)Oc3cccnc3Nn3cnnc3)c2)cc1 (stereo unspecified)	> 10	23.7	9.4	
COc1ccc(CNC(=O)c2cccc(C(C)Oc3ccnc(Nc4cnn(C)c4)c3)c2)cc1OC (stereo unspecified)	0.64	38.5	76.6	
Cc1ccc(CNC(=O)c2cccc(C(C)Oc3ccnc(NN4CCCCC4)c3)c2)cc1 (stereo unspecified)	> 10	37.4	24.5	
